Measurements reported in patent US4798843A, “2-mercaproimidazole dopamine-β-hydroxylase inhibitors” (SmithKline Beckman Corporation, priority 1987, dated 1989).
Blank lines part the entries; values can stand above or below the compound they belong to.

Columns and labels:
[1] = target: T1, DBH (Homo sapiens, UniProt P09172); conditions: cited from earlier work
T1 sequence (P09172 1-617): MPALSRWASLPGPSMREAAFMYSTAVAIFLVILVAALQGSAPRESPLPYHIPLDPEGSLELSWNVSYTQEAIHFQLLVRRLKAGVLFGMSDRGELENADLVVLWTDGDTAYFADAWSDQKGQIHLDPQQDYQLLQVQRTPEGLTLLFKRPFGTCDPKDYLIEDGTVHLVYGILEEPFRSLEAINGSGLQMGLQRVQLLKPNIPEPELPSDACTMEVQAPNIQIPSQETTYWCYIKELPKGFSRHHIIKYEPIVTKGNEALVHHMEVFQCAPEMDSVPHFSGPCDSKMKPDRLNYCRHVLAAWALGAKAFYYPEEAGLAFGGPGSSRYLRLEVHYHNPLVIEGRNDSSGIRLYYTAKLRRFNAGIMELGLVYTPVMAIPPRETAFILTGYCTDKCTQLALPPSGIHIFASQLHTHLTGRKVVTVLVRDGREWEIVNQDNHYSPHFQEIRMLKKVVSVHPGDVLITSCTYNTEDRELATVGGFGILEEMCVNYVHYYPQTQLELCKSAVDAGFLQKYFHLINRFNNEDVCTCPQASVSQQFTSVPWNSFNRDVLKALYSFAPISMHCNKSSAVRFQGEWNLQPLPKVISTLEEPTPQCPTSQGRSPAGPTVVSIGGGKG

[2] = target: T2, DBH (Bos taurus, UniProt P15101); assay: in vitro DBH inhibition, conversion of tyramine to octopamine in the presence of DBH (spectrophotometric at 330 nm); assay type: biochemical; conditions: for DBH inhibition: @ 10^-4 (molar concentration); for IC50: molar concentration of compound at which DBH activity was halved
T2 sequence (P15101 1-610): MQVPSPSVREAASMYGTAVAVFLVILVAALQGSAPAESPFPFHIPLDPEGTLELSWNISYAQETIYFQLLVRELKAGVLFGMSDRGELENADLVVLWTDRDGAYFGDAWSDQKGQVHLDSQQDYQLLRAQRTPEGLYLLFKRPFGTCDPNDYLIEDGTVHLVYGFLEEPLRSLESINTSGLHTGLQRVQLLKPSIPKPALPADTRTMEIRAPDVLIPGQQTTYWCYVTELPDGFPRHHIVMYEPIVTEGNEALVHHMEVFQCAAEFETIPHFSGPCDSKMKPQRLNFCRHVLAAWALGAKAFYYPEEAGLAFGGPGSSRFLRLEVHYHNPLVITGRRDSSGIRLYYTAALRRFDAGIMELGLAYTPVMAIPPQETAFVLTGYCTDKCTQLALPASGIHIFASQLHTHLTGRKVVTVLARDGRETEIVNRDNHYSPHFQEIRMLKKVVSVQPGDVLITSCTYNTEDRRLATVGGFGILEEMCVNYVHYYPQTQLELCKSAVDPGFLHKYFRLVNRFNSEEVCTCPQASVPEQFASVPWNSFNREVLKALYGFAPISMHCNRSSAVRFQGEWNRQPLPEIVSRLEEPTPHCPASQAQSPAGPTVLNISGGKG
Method: Listed in Table I are Formula II compounds that were tested for in vitro DBH inhibition by a standard procedure for assaying conversion of tyramine to octopamine in the presence of DBH. J. J. Pisano, et al., Biochim. Biophys. Acta, 43, 566-568 (1960). Octopamine was assayed following sodium periodate oxidation to p-hydroxybenzaldehyde by measuring spectrophotometric absorbance at 330 nm. In Table I, inhibition is given in molar concentration of compound at which DBH activity was halved (IC50). Fusaric acid, by this test has an IC50 of 8×10^-7 M.

[3] = mean arterial blood pressure in spontaneously hypertensive rats; assay type: in vivo; conditions: 50 mg/kg intraperitoneally
Method: Further, spontaneously hypertensive rats were treated with 5-benzyl-2-mercaptoimidazole at a dose of 50 mg/kg intraperitoneally, and mean arterial blood pressure was monitored for 260 minutes using indwelling cannulae in the tail arteries. […] The maximal blood pressure reduction was approximately 25 mmHg.

[4] = Teresawa et al.; cited from earlier work
[5] = Ehrreich et al.; cited from earlier work

Compound: O=C(O)c1ccc(CCCCCl)cn1 [5 (4 chlorobutyl) picolinic acid]
DBH inhibition (in words) [1]: inhibit DBH

Compound: O=C(O)c1ccc(CCC(Br)CBr)cn1 (centres unmarked) [5-(3,4-dibromobutyl)picolinic acid]
DBH inhibition (in words) [1]: DBH inhibitors

Compound: Sc1ncc(Cc2ccccc2)[nH]1 [5-benzyl-2-mercaptoimidazole]
time to significant blood pressure reductions vs vehicle-treated controls ([3]; indwelling cannulae in tail arteries): ≤ 30 min
maximal blood pressure reduction ([3]; monitored for 260 minutes): approximately 25 mmHg
time of lowest blood pressure ([3]; monitored for 260 minutes): exhibited their lowest blood pressures when monitoring was discontinued

Compound: Sc1ncc(-c2ccc(Cl)cc2)[nH]1 [5-(4-Chlorophenyl)-2-mercaptoimidazole]
IC50 [2]: 100 µM

Compound: COc1ccc(Cc2cnc(S)[nH]2)cc1 [5-(4-Methoxybenzyl)-2-mercaptoimidazole]
DBH inhibition [2]: 36%

Compound: CN(C)C(=S)SCc1ccc(C(=O)O)nc1 [5-(dimethyldithiocarbamoylmethyl)picolinic acid]
DBH inhibition (in words) [1]: DBH inhibitors

Compound: NNCc1ccccc1 [benzylhydrazine]
DBH inhibition (in words) [1]: apparently act as competitive inhibitors

Compound: CCCCc1ccc(C(=O)O)nc1 [Fusaric acid]
hepatotoxicity [4]: hepatotoxic

Compound: NOCc1ccccc1 [Benzyloxyamine]
DBH inhibition (in words) [1]: apparently act as competitive inhibitors

Compound: COc1ccc(-c2cnc(S)[nH]2)cc1 [5-(4-Methoxyphenyl)-2-mercaptoimidazole]
DBH inhibition [2]: 38%

Compound: phenylpicolinic acid
DBH inhibitory activity relative to fusaric acid ([1]; Runti et al.): twice the inhibitory activity of fusaric acid

Compound: Sc1ncc(CCc2ccccc2)[nH]1 [5-(2-Phenylethyl)-2-mercaptoimidazole]
IC50 [2]: 17 µM

Compound: CCCCc1ccc(C(N)=O)nc1 [Bupicomide, 5-(n-butyl)picolinamine]
DBH inhibition (in words) [1]: DBH inhibitor
antihypertensive or vasodilator activity [5]: has antihypertensive activity

Compound: Sc1nc(-c2ccccc2)c[nH]1 [5-Phenyl-2-mercaptoimidazole]
IC50 [2]: 5500 µM

Compound: NCCc1ccc(O)c(O)c1 [DA, dopamine]
antihypertensive or vasodilator activity [5]: selective vasodilator activity at certain concentrations

More lines, now with the values ahead:

DBH inhibition [2]: 29%
Compound: Oc1ccc(CCCc2cnc(S)[nH]2)cc1 [5-(3-(4-Hydroxyphenyl)propyl)-2-mercaptoimidazole]

IC50 [2]: 100 µM
Compound: COc1ccc(CCCCc2cnc(S)[nH]2)cc1 [5-(4-(4-Methoxyphenyl)butyl)-2-mercaptoimidazole]

IC50 [2]: 100 µM
Compound: Sc1ncc(CCCCc2ccccc2)[nH]1 [5-(4-Phenylbutyl)-2-mercaptoimidazole]

DBH inhibition [2]: 24%
Compound: Oc1ccc(CCCCc2cnc(S)[nH]2)cc1 [5-(4-(4-Hydroxyphenyl)butyl)-2-mercaptoimidazole]

DBH inhibition [2]: 8.4%
Compound: COc1ccc(CCc2cnc(S)[nH]2)cc1 [5-(2-(4-Methoxyphenyl)ethyl)-2-mercaptoimidazole]

DBH inhibition [2]: 39%
Compound: COc1ccc(CCCc2cnc(S)[nH]2)cc1 [5-(3-(4-Methoxyphenyl)propyl)-2-mercaptoimidazole]

IC50 [2]: 400 µM
Compound: Oc1ccc(CCc2cnc(S)[nH]2)cc1 [5-(2-(4-Hydroxyphenyl)ethyl)-2-mercaptoimidazole]

IC50 [2]: 10 µM
Compound: Sc1ncc(CCCc2ccccc2)[nH]1 [5-(3-Phenylpropyl)-2-mercaptoimidazole]
